According to ChEMBL document CHEMBL1772976, “Bathymodiolamides A and B, ceramide derivatives from a deep-sea hydrothermal vent invertebrate mussel, Bathymodiolus thermophilus” (J Nat Prod, 2011):

Assays:
[1] = test system: HeLa; assay: Cytotoxicity against human HeLa cells after 48 hrs by MTT assay; format: functional, cell-based
[2] = test system: MCF7; assay: Cytotoxicity against human MCF7 cells after 48 hrs by MTT assay; format: functional, cell-based; conditions: MCF7, 48 h

SMILES | IC50 [1] | IC50 [2]
CCC/C=C\C/C=C\C/C=C\CCCCC(=O)O[C@@H](COC(=O)CCCCCCCCCCCCCCC)[C@H](O)[C@H](CO)NC(=O)CCCCCCCCCCC [BATHYMODIOLAMIDE A] | 400 nM | 100 nM
CCC/C=C\C/C=C\CCC(=O)O[C@@H](COC(=O)CCCCCCCCCCCCC)[C@H](O)[C@H](CO)NC(=O)CCCCCCCCCCC [BATHYMODIOLAMIDE B] | 500 nM | 200 nM
